Measured values: patent US9408817B2, “Methods for detecting inflammatory bowel disease in a feline” (Hill's Pet Nutrition, Inc., priority 2005, dated 2016)

Columns and labels:
Format in all cases: cell-based
IL-6 = assay: cytokine expression by RT-PCR in PHA-stimulated lymphocytes: IL-6; settings: PHA + 12.5 μM, healthy cats (no PHA) = 1
Procedure: (§1) Lymphocytes are obtained from the blood of healthy cats and cats with IBD as described in Example 1 and then treated with DHA or EPA also as described in Example 1. Ribonucleic acid (RNA) is extracted from all samples, and real time polymerase chain reaction (RT-PCR) is performed to examine the changes in the level of expression of the following cytokines: interleukins 1α, 1β, 2, 6, and 10 (IL-1α, IL-1β, IL-2, IL-6, and IL-10), macrophage inhibitory factor (MIF), interferon gamma (IFN-γ), and transforming growth factor beta (TGF-β).

IL-2 = assay: cytokine expression by RT-PCR in PHA-stimulated lymphocytes: IL-2; settings: PHA + 12.5 μM, healthy cats (no PHA) = 1
Procedure: as §1

MIF = assay: cytokine expression by RT-PCR in PHA-stimulated lymphocytes: MIF; settings: PHA + 12.5 μM, healthy cats (no PHA) = 1
Procedure: as §1

IL-1β = assay: cytokine expression by RT-PCR in PHA-stimulated lymphocytes: IL-1β; settings: PHA + 12.5 μM, healthy cats (no PHA) = 1
Procedure: as §1

IL-10 = assay: cytokine expression by RT-PCR in PHA-stimulated lymphocytes: IL-10; settings: PHA + 12.5 μM, healthy cats (no PHA) = 1
Procedure: as §1

IFN-γ = assay: cytokine expression by RT-PCR in PHA-stimulated lymphocytes: IFN-γ; settings: PHA + 12.5 μM, healthy cats (no PHA) = 1
Procedure: as §1

TGF-β = assay: cytokine expression by RT-PCR in PHA-stimulated lymphocytes: TGF-β; settings: PHA + 12.5 μM, healthy cats (no PHA) = 1
Procedure: as §1

[1] = system: lymphocytes obtained from the blood of healthy cats and cats with IBD; assay: in vitro lymphocyte proliferation assay (BrdU ELISA, PHA-stimulated); settings: 40 h
Procedure: The study utilizes eleven healthy cats and eleven cats with IBD, The cats with IBD are diagnosed by an intestinal biopsy, and have a history of chronic diarrhea. For six weeks, all cats are fed a nutritionally adequate dry food indicated for gastrointestinal distress. Blood is drawn from all cats at four, five, and six weeks. Samples with equal amounts of lymphocytes are used in an in vitro lymphocyte proliferation assay.
More specifically, 4.5 ml blood is mixed with 4.5 ml HBSS (Hank's Balanced Salt Solution)+25 mM HEPES. 4 ml of Ficoll-Paque Plus (Amersham) are slowly injected under the diluted blood. The mixture is centrifuged for twenty minutes at 500 g at 25° C. The upper layer is discarded. The lymphocytes are transferred into a clean tube, resuspended in 6 ml of HBSS+25 mM HEPES, and then centrifuged for ten minutes at 200 g at 25° C. The supernatant is discarded, and the lymphocytes are washed with 6 ml of HBSS. This centrifugation and wash step is repeated two more times. The washed lymphocytes are then resuspended in 5 ml of AIM medium (Invitrogen). Samples with 200,000 lymphocytes in 100 μl of AIM medium are used for the lymphocyte proliferation assay.
The lymphocyte proliferation assay is performed utilizing Amersham's Biotrak cell proliferation ELISA system, version 2. Lymphocyte samples are incubated in a 96-well plate with 7 μg/ml PHA (phytohemagglutinin) in the absence or presence of 12.5 μM and 25 μM DHA or EPA in a 37° C. incubator with 5% CO2 and 90% humidity for forty hours. After that, 20 μl of 100 μM BrdU is added, and the samples are incubated for two hours at 37° C. The plates are then removed from the incubator and centrifuged at 300 g for ten minutes at 25° C. The medium is removed by tapping and blotting, and the cells are dried in a chemical fume hood for at least fifteen minutes. 200 μl of fixative is added to every well and the plate is incubated for thirty minutes at room temperature. The cell fixative is removed by tapping and blotting. 200 μl of blocking buffer are added to every well, and the plate is incubated for thirty minutes at room temperature. The blocking buffer is removed by tapping and blotting, and 100 μl of anti-BrdU working solution is added to each well and incubated for ninety minutes at room temperature. The anti-BrdU solution is removed by tapping and blotting, and each well is rinsed three times with 300 μl washing solution. 100 μl 3.3′,5,5′-tetamethylbenzidine is added to each well and incubated for ten minutes or until color intensity is achieved. 25 μl 1M sulfuric acid is added to stop the reaction, and the plate is read on a fusion microplate reader (PerkinElmer) within five minutes.

IL-1α = assay: cytokine expression by RT-PCR in PHA-stimulated lymphocytes: IL-1α; settings: PHA + 12.5 μM, healthy cats (no PHA) = 1
Procedure: as §1

[2] = lymphocytes of cats with IBD, 7 μg/ml PHA + 12.5 μM fatty acid
[3] = lymphocytes of cats with IBD, 7 μg/ml PHA + 25 μM fatty acid
[4] = lymphocytes of healthy cats, 7 μg/ml PHA + 12.5 μM fatty acid
[5] = lymphocytes of healthy cats, 7 μg/ml PHA + 25 μM fatty acid

| Compound | IL-6 expression (IL-6; cats with IBD) | IL-6 expression (IL-6; healthy cats) | IL-2 expression (IL-2; cats with IBD) | IL-2 expression (IL-2; healthy cats) | MIF expression (MIF; cats with IBD) | MIF expression (MIF; healthy cats) | IL-1β expression (IL-1β; cats with IBD) | IL-1β expression (IL-1β; healthy cats) | IL-10 expression (IL-10; cats with IBD) | IL-10 expression (IL-10; healthy cats) | IFN-γ expression (IFN-γ; cats with IBD) | IFN-γ expression (IFN-γ; healthy cats) | TGF-β expression (TGF-β; cats with IBD) | TGF-β expression (TGF-β; healthy cats) | Lymphocyte Proliferation [1, 2] | Lymphocyte Proliferation [1, 3] | Lymphocyte Proliferation [1, 4] | Lymphocyte Proliferation [1, 5] | IL-1α expression (IL-1α; cats with IBD) | IL-1α expression (IL-1α; healthy cats) |
| --- | --- | --- | --- | --- | --- | --- | --- | --- | --- | --- | --- | --- | --- | --- | --- | --- | --- | --- | --- | --- |
| CC/C=C\C/C=C\C/C=C\C/C=C\C/C=C\CCCC(=O)O [EPA, eicosapentaenoic acid] | 6.45 | 10.6 | 1.89 | 59.4 | 4.45 | 14.05 | 1.34 | 1.17 | 0.34 | 1.2 | 4.45 | 130.9 | 2.4 | 4.7 | 0.62 ± 0.27 | 0.63 ± 0.29 | 0.38 ± 0.23 | 0.37 ± 0.23 | 0.46 | 1.05 |
| CC/C=C\C/C=C\C/C=C\C/C=C\C/C=C\C/C=C\CCC(=O)O [DHA, docosahexaenoic acid] | 13.9 | 5.75 | 3 | 21.05 | 6.55 | 16.9 | 1.85 | 0.87 | 0.45 | 0.95 | 4.9 | 37.6 | 1.45 | 3.55 | 0.49 ± 0.15 | 0.45 ± 0.18 | 0.28 ± 0.19 | 0.25 ± 0.17 | 0.57 | 0.86 |
